Assays:
[1] = target: human adrenergic beta2 receptor (Homo sapiens (Human), UniProt P07550); experiment: Human adrenergic β2 receptor binding assay (3H-CGP12177, Sf9 cell membranes); conditions: 0.6 nM 3H-CGP12177, membranes from Sf9 cells
Experimental: Test 1: Human Adrenergic β1 and β2 Receptor Binding Assays
The study of binding to human adrenergic beta1 and beta2 receptors was performed using commercial membranes prepared from Sf9 cells where they are overexpressed (Perkin Elmer). The membrane suspensions (16 μg/well for beta1 and 5 μg/well for beta2) in assay buffer (75 mM Tris/HCl with 12.5 mM MgCl2 and 2 mM EDTA pH=7.4) were incubated with 0.14 or 0.6 nM of 3H-CGP12177 (Amersham) for beta 1 and beta 2 receptors respectively in a final volume of 250 μl, in GFC Multiscreen 96 well plates (Millipore) previously treated with assay buffer containing 0.3% PEI (Sigma). Non specific binding was measured in the presence of 1 μM propanolol. Incubation was maintained for 60 minutes at room temperature and with gentle shaking. The binding reactions were terminated by filtration and washing with 2.5 volumes of Tris/HCl 50 mM pH=7.4. The affinity of each test compound to the receptor was determined by using ten different concentrations ran in duplicate. IC50s were calculated using Activity Base software from IDBS and the four parameters-log equation.

[2] = target: human muscarinic M3 receptor (Homo sapiens (Human), UniProt P20309); experiment: Human muscarinic M3 receptor binding assay ([3H]-NMS, CHO-K1 cell membranes); conditions: 1 nM [3H]-NMS, membranes from CHO-K1 cells
human muscarinic M3 receptor, sequence (P20309 whole entry): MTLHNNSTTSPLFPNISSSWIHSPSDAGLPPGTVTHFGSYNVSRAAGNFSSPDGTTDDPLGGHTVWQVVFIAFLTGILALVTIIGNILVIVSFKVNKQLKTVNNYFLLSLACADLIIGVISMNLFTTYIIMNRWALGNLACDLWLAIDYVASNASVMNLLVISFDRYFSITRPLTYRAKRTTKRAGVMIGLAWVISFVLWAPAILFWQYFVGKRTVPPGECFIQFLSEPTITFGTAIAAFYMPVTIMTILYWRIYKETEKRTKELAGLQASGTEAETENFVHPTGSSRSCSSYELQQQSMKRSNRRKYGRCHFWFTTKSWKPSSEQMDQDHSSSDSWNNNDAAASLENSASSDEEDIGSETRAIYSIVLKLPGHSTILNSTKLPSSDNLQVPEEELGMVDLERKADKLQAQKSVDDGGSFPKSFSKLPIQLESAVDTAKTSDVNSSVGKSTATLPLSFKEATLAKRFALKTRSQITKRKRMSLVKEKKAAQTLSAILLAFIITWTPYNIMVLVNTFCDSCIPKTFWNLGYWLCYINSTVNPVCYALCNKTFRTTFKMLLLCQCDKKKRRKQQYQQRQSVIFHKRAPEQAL
Experimental: Test 2: Human Muscarinic M1, M2, M3, M4 and M5 Receptors Binding Assays
The study of binding to human muscarinic M1, M2, M3, M4 and M5 receptors was performed using commercial membranes (Perkin Elmer) prepared from CHO-K1 cells. Radioligand binding experiments were conducted in 96 polypropylene well plates in a total volume of 200 μl. All reagents were dissolved in assay binding buffer (PBS with calcium and magnesium, SIGMA), except compounds that were dissolved in DMSO 100%. Non-specific binding (NSB) was measured in the presence of 1 μM atropine. [3H]-NMS was used as the radioligand at a concentration of 1 nM for M2, M3 and M5 and 0.3 nM for M1 and M4. […]
After an incubation period of two hours with gentle shaking, 150 μl of the reaction mix were transferred to 96 GF/C filter plates (Millipore), previously treated with wash buffer (Tris 50 mM; NaCl 100 mM; pH: 7.4), containing 0.05% PEI (Sigma) during one hour. […] After drying 30 min, 30 μl of OPTIPHASE Supermix were added to each well and radioactivity quantified using a Microbeta microplate scintillation counter.
The affinity of each test compound to the receptors was determined by using ten different concentrations ran in duplicate. IC50s were calculated using Activity Base software from IDBS and the four parameters-log equation.

| Compound | IC50 [1] [nM] | IC50 [2] [nM] |
| --- | --- | --- |
| CN(CCCn1c(=O)[nH]c2cc(CNC[C@H](O)c3ccc(O)c4[nH]c(=O)ccc34)ccc21)[C@H]1CC[C@H](OC(=O)C(O)(c2cccs2)c2cccs2)CC1 (relative stereo) [Example 2, trans-4-[{3-[5-({[(2R)-2-hydroxy-2-(8-hydroxy-2-oxo-1,2-dihydroquinolin-5-yl)ethyl]amino}methyl)-2-oxo-2,3-dihydro-H-benzimidazol-1-yl]propyl}(methyl)amino]cyclohexyl hydroxy(di-2-thienyl)acetate dihydrofluoride] | 120 | 0.4 |
| trans-4-{[2-({2-[4-(2-{[(2R)-2-hydroxy-2-(8-hydroxy-2-oxo-1,2-dihydroquinolin-5-yl)ethyl]amino}propyl)phenoxy]acetyl}amino)ethyl]amino}cyclohexyl hydroxy(di-2-thienyl)acetate dihydrofluoride [Example 20] | 3.1 | 3.6 |

Source: patent US9757383B2, “Cyclohexylamine derivatives having β2 adrenergic agonist and M3 muscarinic antagonist activities” (ALMIRALL, S.A., priority 2011, dated 2017)
